Test results as given in patent publication US5298494A, “Monosaccharides having anti-proliferation and anti-inflammatory activity, compositions and uses thereof” (Greenwich Pharmaceuticals Incorporated, priority 1993, dated 1994).
Read-outs that look alike come from different tables or passages of the source.

Assays:
[1] = test system: T cell proliferation in mouse spleen cell mixed lymphocyte cultures; experiment: Mixed Lymphocyte Reaction (MLR) assay; assay type: cell-based, mouse (Balb/c responder, C57B1/6 stimulator); conditions: for inhibition at 3 µM / inhibition at 10 µM / inhibition at 30 µM / inhibition at 100 µM / inhibition at 300 µM: Mus musculus, Lymphocyte, read-out: % Change From Control, MLR
Text: The pharmacologic assays performed to determine the immunomodulatory effects of the experimental compounds in vitro include the Mixed Lymphocyte Reaction (MLR) and the ConA blastogenesis assay. These assays were used to determine the inhibitory effects of the compounds of the invention on T lymphocyte activation and proliferation. Since inflammation at the cellular level is characterized by T lymphocyte recruitment, activation and proliferation, these assays are appropriate to use as screens for novel compounds having therapeutic potential in the treatment of disorders in which inflammatory mechanisms are involved.
The MLR is a classical assay used to measure T cell function by studying the proliferative response of T cells which are activated in vitro by genetically disparate stimulator cells. This is accomplished by co-culturing spleen cells from two different strains of mice. Splenic T cell proliferation occurs as a result of cellular activation signals generated by the ongoing cellular interactions.
Balb/c mice were euthanised by cervical dislocation and their spleens removed. Single cell suspensions of the spleens were prepared in culture medium (hepes buffered RPMI-1640 supplemented with 10% fetal calf serum, 2mM glutamine, 500 units penicillin/ streptomycin, and 4×10^-5 M 2-mercaptoethanol) using a Teflon pestle. The cells were centrifuged at 1500 rpm and the pellets resuspended in ACT (0.15M tris, 0.14M ammonium chloride, pH 7.2) in order to lyse the red blood cells. After a 5 minute incubation in a 37 C. waterbath, the cells were resuspended in culture medium and counted. C57B1/6 spleen cells which were used as stimulator cells, were also prepared by this method. The stimulator cells were treated with 100 ug/ml of mitomycin c for 1 hour at 37 C. (to inhibit stimulatory cell proliferation) and were then washed 5 times in culture medium. The proliferative responses were measured by culturing 2.5×10^5 responder cells with 5×10^5 stimulatory cells in 96 well microtiter plates in the presence or absence of various doses of test compounds or vehicle (DMSO). Syngeneic control cultures using mitomycin c treated Balb/c spleen cells as stimulator cells were also run. All cultures were run in triplicate.
Solutions of compounds of the present invention in DMSO were prepared at a stock concentration of 120 Mm. Dilutions were made in culture medium to the following concentrations: 3, 10, 30, 100, and 300 uM. The vehicle (DMSO) was used as a negative control.
After incubation of for 5 days at 37 C. with 5% CO2, the amount of cell proliferation was measured by adding 20 ul of MTT (3-[4,5-dimethylthiazol-2-yl]-2,5diphenyl-tetrazolium bromide) (10 mg/ml in phosphate buffered saline) to each well. Plates were incubated for 4 hours at 37 C., after which 180 ul of 10% sodium dodecyl sulphate in phosphate buffered saline was added. After an overnight incubation, the optical density (OD) of each well was read on a Molecular Devices microplate reader at 570-650 nm. The results were determined by calculating the difference between the means of the allogeneic cultures and the means of the syngenic cultures for each test article concentration. Differences of the test article groups were compared to the control group and the percent change from the control was determined.

[2] = test system: T lymphocytes (normal mouse spleen cells) stimulated with ConA; experiment: Mouse Spleen Cell ConA Blastogenesis Assay; assay type: cell-based, mouse (C57Bl/6); conditions: Mus musculus, T-lymphocyte; for inhibition at 1 µg/mL: compound 1 ug/ml; for inhibition at 2.5 µg/mL: compound 2.5 ug/ml; for inhibition at 10 µg/mL: compound 10 ug/ml; for inhibition at 25 µg/mL: compound 25 ug/ml; for inhibition at 0.1 µg/mL: compound 0.1 ug/ml
Text: It is well known that several plant lectins, when cultured in vitro with lymphocytes, stimulate cellular activation and proliferation. Concanavolin, (ConA) selectively stimulates the blastogenic response of T lymphocytes.
Six to 8 week old male C57Bl/6 mice were purchased from Harlan Sprague Dawley (Indianapolis, Ind.).
Spleens were removed and were homogenized to obtain a single cell suspension. Erythrocytes were lysed by hypotonic shock. Upon determination of the viability and concentration of the lymphoid cells, they were adjusted to 4×10^6 cells/ml in culture medium (RPMI-1640) supplemented with 10% fetal bovine serum; 100 ug/ml streptomycin; 100 U/ml penicillin, 0.2M hepes buffer; 5×10^-5 M 2-mercaptoethanol and 2 mM glutamine). seeded into microtiter plate wells at 2×10^5 cells/0.050 ml/well. To these cultures were added various doses of experimental compounds and ConA at a final concentration of 4 or 1 ug/ml. Control cultures consisted of cells, ConA and culture medium containing the vehicle, DMSO only. […] For the testing of the methyl 1,3-O-isopropylidene-6-O-n-heptyl-α-D-fructofuranoside compound indomethacin and NDGA were used as controls. All cultures were run in triplicate.
Solutions of compounds of the invention in DMSO were prepared and dilutions were made in culture medium. Assay concentrations were either: 1, 2.5, 10, 25, 100, 300 and 750 ug/ml or 0.001, 0.01, 0.1, 1, 2.5, 10, 25 and 100 ug/ml.
Cultures were incubated for 3 days at 37° C. in a humidified atmosphere of 5% of CO2 in air. For the last 18 hours of culture, 1 uCi of ^3 H-thymidine was also incubated in each well. The cells were precipitated by a multi-channel harvester. The amount of ^3 H-thymidine incorporated by the cultures, as a measure of cell proliferation, was measured in a liquid scintillation counter. The amount of radioactive incorporation is proportional to the amount of cellular proliferation in individual wells. The students T test was used to determine the significance of the difference between experimental and control values.

[3] = ConA 1 ug/ml, read-out: % change from control, ConA blastogenic response
[4] = ConA 1 ug/ml, compound 100 ug/ml, read-out: % change from control, ConA blastogenic response
[5] = ConA 4 ug/ml, read-out: % change from control, ConA blastogenic response
[6] = ConA 4 ug/ml, compound 100 ug/ml, read-out: % change from control, ConA blastogenic response
[7] = ConA 1 ug/ml, 0.01 ug/ml, read-out: % Change from Control (Table II)
[8] = ConA 1 ug/ml, compound 0.01 ug/ml, read-out: % change from control, ConA blastogenic response
[9] = ConA 4 ug/ml, 0.01 ug/ml, read-out: % Change from Control (Table II)
[10] = ConA 4 ug/ml, compound 0.01 ug/ml, read-out: % change from control, ConA blastogenic response

Row | SMILES | Mean O.D. Allogenic ([1]; 3 um) [O.D.] | Mean O.D. Syngeneic ([1]; 3 um) [O.D.] | Mean O.D. Allogenic ([1]; 10 um) [O.D.] | Mean O.D. Syngeneic ([1]; 10 um) [O.D.] | Mean O.D. Allogenic ([1]; 30 um) [O.D.] | Mean O.D. Syngeneic ([1]; 30 um) [O.D.] | Mean O.D. Allogenic ([1]; 100 um) [O.D.] | Mean O.D. Syngeneic ([1]; 100 um) [O.D.] | Mean O.D. Allogenic ([1]; 300 um) [O.D.] | inhibition at 3 µM ([1]; 3 um) [%] | inhibition at 10 µM ([1]; 10 um) [%] | inhibition at 30 µM ([1]; 30 um) [%] | inhibition at 100 µM ([1]; 100 um) [%] | inhibition at 1 µg/mL [2, 3] [%] | inhibition at 2.5 µg/mL [2, 3] [%] | inhibition at 10 µg/mL [2, 3] [%] | inhibition at 25 µg/mL [2, 3] [%] | inhibition at 100 µg/mL [2, 4] [%] | inhibition at 1 µg/mL [2, 5] [%] | inhibition at 2.5 µg/mL [2, 5] [%] | other results
1 | CCCCCCCCCCCCCCCOCC(O)C1OC2OC(C)(C)OC2C1O [IIId, 1,2-O-Isopropylidene-6-O-pentadecyl-α-D-glucofuranose] | 0.210 | 0.138 | 0.197 | 0.128 | 0.104 | 0.032 | 0.021 | 0.019 | 0.015 | 13 | 17 | 13 | 98 | – | – | – | – | – | – | – | –
2 | CCCCCCCCCCCCOC1C(C(O)CO)OC2OC(C)(C)OC21 [IIa, 1,2-O-Isopropylidene-3-O-n-dodecyl-α-D-glucofuranose] | – | – | – | – | – | – | – | – | – | – | – | – | – | 21 | 60 | 95 | 99 | 100 | 33 | 50 | inhibition at 100 µg/mL ([2]; 100 ug/ml, read-out: strong inhibition of ConA stimulated T lymphocyte proliferation): < 50%; inhibition at 10 µg/mL [2, 5]: 83%; inhibition at 25 µg/mL [2, 5]: 94%; inhibition at 100 µg/mL [2, 6]: 100%; % Change From Control, MLR ([1]; Table X, 3 ugm): -19%; % Change From Control, MLR ([1]; Table X, 10 ugm): -40%; Mean O.D. Allogenic ([1]; Table X, 10 ugm): 0.185 O.D.; Mean O.D. Syngeneic ([1]; Table X, 10 ugm): 0.135 O.D.; % Change From Control, MLR ([1]; Table X, 30 ugm): 23%; Mean O.D. Allogenic ([1]; Table X, 30 ugm): 0.158 O.D.; Mean O.D. Syngeneic ([1]; Table X, 30 ugm): 0.056 O.D.; % Change From Control, MLR ([1]; Table X, 100 ugm): -86%; % Change From Control, MLR ([1]; Table X, 300 ugm): -96%; strong non-dose dependent inhibition in MLR ([1]; several concentrations): greater than -50 % of control
3 | CCCCC/C=C\COC[C@H]1O[C@@]2(OC)COC(C)(C)O[C@H]2[C@@H]1OC/C=C\CCCCC [If, methyl 1,3-O-isopropylidene-4,6-di-O-(cis,2-octenyl)-α-D-fructofuranoside] | 0.195 | 0.140 | 0.199 | 0.134 | 0.199 | 0.164 | 0.102 | 0.025 | 0.032 | 34 | 22 | 58 | 7 | 14 | 25 | 74 | 85 | 4 | 26 | 42 | inhibition at 0.01 µg/mL [2, 7]: 8%; inhibition at 0.01 µg/mL [2, 8]: -6%; inhibition at 0.1 µg/mL [2, 3]: 2%; inhibition at 0.01 µg/mL [2, 9]: 4%; inhibition at 0.01 µg/mL [2, 10]: 0%; inhibition at 0.1 µg/mL [2, 5]: 23%; inhibition at 10 µg/mL [2, 5]: 79%; inhibition at 25 µg/mL [2, 5]: 87%; inhibition at 100 µg/mL [2, 6]: 88%; Mean O.D. Syngeneic ([1]; 300 um): 0.022 O.D.; inhibition at 300 µM ([1]; 300 um): 88%
4 | CCCCC/C=C\COC[C@H]1O[C@](COC/C=C\CCCCC)(OC)[C@@H](O)[C@@H]1O [Ig, methyl 1,6-di-O-(cis,2-octenyl)-α-D-fructofuranoside] | 0.412 | 0.155 | 0.421 | 0.182 | 0.399 | 0.157 | 0.419 | 0.173 | 0.474 | -34 | -24 | -26 | -28 | 4 | 11 | 87 | 84 | 99 | 5 | 20 | inhibition at 0.01 µg/mL [2, 7]: 3%; inhibition at 0.01 µg/mL [2, 8]: -10%; inhibition at 0.1 µg/mL [2, 3]: 10%; inhibition at 0.01 µg/mL [2, 9]: -7%; inhibition at 0.01 µg/mL [2, 10]: -12%; inhibition at 0.1 µg/mL [2, 5]: 9%; inhibition at 10 µg/mL [2, 5]: 73%; inhibition at 25 µg/mL [2, 5]: 77%; inhibition at 100 µg/mL [2, 6]: 100%; Mean O.D. Syngeneic ([1]; 300 um): 0.037 O.D.; inhibition at 300 µM ([1]; 300 um): -81%
